Measured values published in PubChem BioAssay (NCI).
Where “and” joins values, the source holds several entries; their conditions need not be identical. Identical values can stand only once.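 Briefly, cells in 96-well plates were exposed to five compound concentrations for 48 h, and endpoints were estimated by linear interpolation. Here, GI50 denotes the concentration required for 50% inhibition of growth. TGI denotes the concentration required for complete inhibition of growth.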

Tests used:
Test in all cases: NCI anticancer screen, dose series, 48 h
[1] = test system: 786-0 renal
[2] = test system: BT-549 breast
[3] = test system: HOP-62 NSCLC
[4] = test system: M14 melanoma
[5] = test system: MDA-MB-435
[6] = test system: OVCAR-5 ovarian
[7] = test system: SK-MEL-2 melanoma
[8] = test system: SK-MEL-28 melanoma
[9] = test system: SK-OV-3 ovarian
[10] = test system: SNB-19 CNS

Row | SMILES | GI50 [1] [µM] | TGI [1] | GI50 [2] [µM] | TGI [2] | GI50 [3] [µM] | TGI [3] | GI50 [4] | TGI [4] [µM] | GI50 [5] | TGI [5] [µM] | GI50 [6] [µM] | TGI [6] | GI50 [7] | TGI [7] [µM] | GI50 [8] [µM] | TGI [8] | GI50 [9] | TGI [9] [µM] | GI50 [10] [µM] | TGI [10] [µM]
1 | Clc1ccc(-c2nc3c(-c4ccccc4)nc(-c4ccccc4)cn3c2-c2ccc(Cl)cc2)cc1 | > 100 | > 100 µM | > 100 | > 100 µM | > 100 | > 100 µM | > 100 µM | > 100 | > 100 µM | > 100 | > 100 | > 100 µM | > 100 µM | > 100 | > 100 | > 100 µM | > 100 µM | > 100 | > 100 | > 100
2 | CS(=O)(=O)c1ccc2c(c1)C(=O)c1c-2n(CCCBr)c(=O)c2cc([N+](=O)[O-])ccc12 | 6.07 | > 100 µM | 26.7 | > 100 µM | 8.14 | > 100 µM | 7.11 µM | > 100 | 82.6 µM | > 100 | > 100 | > 100 µM | 19.6 µM | 43.8 | > 100 | > 100 µM | 7.58 µM | > 100 | 6.03 | > 100
3 | COC(=O)[C@H](Cc1ccccc1)NNC(=O)c1csc([C@@H](C[C@H](C(C)C)N(C)C(=O)[C@@H](NC(=O)[C@H]2CCCCN2C)C2CC2)OC(C)=O)n1 |  | 25 µM and > 100 µM |  | 0.317 µM and 0.973 µM |  | 25 µM and > 100 µM | 0.0112 µM and 0.0025 µM | 25 | 0.00165 µM and 0.0151 µM |  |  | 25 µM and > 100 µM | 0.035 µM and 0.0932 µM | > 100 |  | 25 µM and > 100 µM | 0.48 µM and 1 µM | > 100 |  | > 100
4 | Cc1cncc(-c2nc(NCCc3c[nH]c4ccccc34)c3ncn(C(C)C)c3n2)c1 | 2.01 | 6.01 µM | 2.99 | 15 µM | 6.01 | 22.9 µM | 3.94 µM | 16.9 | 4.6 µM | 17 | 3.45 | 18.4 µM | 2.83 µM | 9.8 | 2.52 | 6.66 µM | 5.76 µM | 35.7 | 11.5 | 46.6
5 | O=C(CN1CCN(CCN2C(=O)c3cccc4cccc(c34)C2=O)CC1)Nc1ccc2ncsc2c1 | 5.82 | 20.8 µM | 11.9 | 30.1 µM | 5.69 | 23.4 µM | 8.63 µM | 22.2 | 5.52 µM | 20.4 | 10.5 | > 100 µM | 6.49 µM | 23.6 | 11 | 23.8 µM | 8.35 µM | 23.3 | 4.5 | 21.7
6 | Cc1ccc(S(=O)(=O)OCC(=O)Nc2ccc(C(=O)O)c(O)c2)cc1 | 30.5 | 96.7 µM | 71.6 | 206 µM | 32.6 | 86 µM | 28.2 µM | 85 | 39.9 µM | 169 | 46.5 | 105 µM | 50.2 µM | 203 | 31.8 | 94.5 µM | 49.5 µM | 188 | 66.5 | 242
7 | O=C(NCCCl)NCCN1c2nc3ccccc3cc2Sc2cc3ccccc3nc21 | 1.55 | 4.89 µM | 7.01 | > 48.6 µM | 2.8 | 9.87 µM | 1.77 µM | 6.73 | 1.57 µM | 11.1 | 4.24 | > 44.5 µM | 2.21 µM | 8.53 | 2.8 | 8.53 µM | 4.41 µM | > 44.3 | 5.58 | > 46.8
